One assay deals with T1, human PPARα (NR1C1) (Homo sapiens, UniProt Q07869).
T1 sequence (Q07869 1-468): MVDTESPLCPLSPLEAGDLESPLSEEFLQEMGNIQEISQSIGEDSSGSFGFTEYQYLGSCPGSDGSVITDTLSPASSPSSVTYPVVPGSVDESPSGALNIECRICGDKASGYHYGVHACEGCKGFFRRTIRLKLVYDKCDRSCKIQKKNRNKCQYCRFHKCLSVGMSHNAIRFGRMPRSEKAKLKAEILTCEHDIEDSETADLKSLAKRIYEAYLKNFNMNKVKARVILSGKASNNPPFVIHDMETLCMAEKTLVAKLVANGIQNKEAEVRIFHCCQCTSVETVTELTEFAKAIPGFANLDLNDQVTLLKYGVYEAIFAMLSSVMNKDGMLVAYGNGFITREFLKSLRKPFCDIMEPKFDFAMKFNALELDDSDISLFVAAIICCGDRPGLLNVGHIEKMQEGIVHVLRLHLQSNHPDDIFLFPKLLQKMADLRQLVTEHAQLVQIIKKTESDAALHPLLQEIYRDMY
Briefly: Cell-based human PPARα transactivation (nuclear receptor reporter) assay. Conditions: for activating PPARα: at 10 μM. As to the method: (§1) The assay was performed using cell-based human PPAR nuclear receptor reporter assay kits (NR1C1 for PPARα; NR1C2 for PPARδ/β, and NR1C3 for PPARγ, Indigo Biosciences) by following the manufacturer's instruction. In brief, PPAR reporter cells were added to CRM medium (Indigo Biosciences), seeded into wells of a 96-well culture plate and incubated for 5 hours in a cell culture incubator at 37° C. with 5% CO2. The medium was then removed, and the cells were treated with test compounds at different concentrations in CSM medium (Indigo Biosciences) for 24 h inside the incubator. […] DMSO (Sigma) at 0.1% (v/v) was used as negative baseline control (C). Each treatment was tested in duplicate wells. At the end point of the experiments, the treatment medium was discarded and Luciferase Detection Reagent (Indigo Biosciences) was added. Following a 10-minute rest period, the intensity of light emission (in units of “Relative Light Units; RLU”) from each assay well was quantified using a plate-reading luminometer (Synergy H1 plate reader, BioTek). In addition, live cell multiplex assay (Indigo Biosciences) was combined with the activation assays to detect potential cytotoxic effect, if any, of the test chemicals to normalize the signals as per manufacturer's instruction.

For another assay, the target named is T2, human PPARγ (NR1C3) (Homo sapiens, UniProt P37231).
T2 sequence (P37231 1-505): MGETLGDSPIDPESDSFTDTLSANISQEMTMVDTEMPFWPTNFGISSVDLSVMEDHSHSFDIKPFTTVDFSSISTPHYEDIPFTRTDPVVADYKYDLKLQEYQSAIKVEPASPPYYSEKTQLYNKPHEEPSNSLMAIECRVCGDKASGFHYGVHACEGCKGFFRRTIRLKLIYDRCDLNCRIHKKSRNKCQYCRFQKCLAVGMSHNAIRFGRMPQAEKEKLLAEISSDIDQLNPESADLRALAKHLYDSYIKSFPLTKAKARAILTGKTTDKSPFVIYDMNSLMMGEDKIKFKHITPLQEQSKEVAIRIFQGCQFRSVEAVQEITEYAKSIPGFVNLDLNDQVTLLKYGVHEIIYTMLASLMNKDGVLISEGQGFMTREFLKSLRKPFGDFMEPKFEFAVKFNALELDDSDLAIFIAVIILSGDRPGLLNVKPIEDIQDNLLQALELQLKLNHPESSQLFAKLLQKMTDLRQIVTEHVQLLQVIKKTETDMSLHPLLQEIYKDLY
Description: Cell-based human PPARγ transactivation (nuclear receptor reporter) assay. As to conditions: for activating PPARγ: at 1 μM. The procedure: as §1

Data on 8 compounds can be found in US20220378744A1, “COMPOUNDS FOR TREATING PROLIFERATOR-ACTIVATED RECEPTORS (PPAR) MEDIATED DISEASES OR CONDITIONS” (MEDIPURE PHARMACEUTICALS INC., priority 2021, published 2022).

Consider `Cc1nc(-c2ccc(C(F)(F)F)cc2)sc1C(=O)NCc1ccc(OC(C)(C)C(=O)O)cc1` [GW590375, reference compound], for which, on human PPARα (NR1C1) (luciferase reporter cells, 24 h treatment, FIG. 1), the “PPARα transactivation: concentration at which (or starting at which) active” value turned out to be 0.001 µM. With `CCCc1cc(C(=O)c2ccc(-c3ccccc3)cc2)ccc1OCCOc1ccc2c(cnn2C(OCC)C(=O)O)c1` (stereo not drawn) [KV 196, 2-(5-(2-(4-([1,1′-biphenyl]-4-carbonyl)-2-propylphenoxy)ethoxy)-1H-indazol-1-yl)-2-ethoxyacetic acid], at human PPARγ (NR1C3), the “activating PPARγ” value is recorded as “highly effective”. In addition, the “activating PPARα” value at human PPARα (NR1C1) is “not effective”. Turning to `CCCc1cc(C(=O)c2ccc(F)cc2)ccc1OCCCOc1ccc2c(cnn2C(OCC)C(=O)OC)c1` (stereo not drawn) [KV-157, methyl 2-ethoxy-2-(5-(3-(4-(4-fluorobenzoyl)-2 propylphenoxy)propoxy)-1H-indazol-1-yl)acetate], the “activating PPARγ” value at human PPARγ (NR1C3) is reported as “highly effective”. Moreover, the “activating PPARα” value on human PPARα (NR1C1) is recorded as “not effective”. Regarding `CCCc1cc(C(=O)c2ccc(F)cc2)ccc1OCCOc1ccc2c(cnn2C(OCC)C(=O)OCC)c1` (stereo not drawn) [KV-163A, ethyl 2-ethoxy-2-(5-(2-(4-(4-fluorobenzoyl)-2-propylphenoxy)ethoxy)-1H-indazol-1-yl)acetate], the “activating PPARγ” value on human PPARγ (NR1C3) is “highly effective”. In addition, the “activating PPARα” value at human PPARα (NR1C1) is “not effective”. With `CCCc1cc(C(=O)c2ccc(-c3ccccc3)cc2)ccc1OCCCOc1ccc2c(cnn2C(OCC)C(=O)OCC)c1` (stereo not drawn) [KV-165, ethyl 2-(5-(3-(4-([1,1′-biphenyl]-4-carbonyl)-2-propylphenoxy)propoxy)-1H-indazol-1-yl)-2-ethoxyacetate], the “activating PPARγ” value on human PPARγ (NR1C3) was “highly effective”. The “activating PPARα” value at human PPARα (NR1C1) was “not effective”.

`CCCc1cc(C(=O)c2ccc(-c3ccccc3)cc2)ccc1OCCCOc1ccc2c(cnn2C(OCC)C(=O)O)c1` (stereo not drawn) [KV-180, 2-(5-(3-(4-([1.1′-biphenyl]-4-carbonyl)-2-propylphenoxy)propoxy)-1H-indazol-1-yl)-2-ethoxyacetic acid]: at human PPARγ (NR1C3), the “activating PPARγ” value is “highly effective”. Also, the “activating PPARα” value at human PPARα (NR1C1) is “not effective”.

Take `CCCc1cc(C(=O)c2ccc(F)cc2)ccc1OCCOc1ccc2c(cnn2C(OCC)C(=O)O)c1` (stereo not drawn) [KV-192, 2-ethoxy-2-(5-(2-(4-(4-fluorobenzoyl)-2-propylphenoxy)ethoxy)-1H-indazol-1-yl)acetic acid]: the “concentration at which PPARγ was activated” value on human PPARγ (NR1C3) came to 10 µM. Moreover, the “activating PPARα” value at human PPARα (NR1C1) is on record as “not effective”. For `CCCc1cc(C(=O)c2ccc(-c3ccccc3)cc2)ccc1OCCOc1ccc2c(cnn2C(OCC)C(=O)OCC)c1` (stereo not drawn) [KV-194A, Ethyl 2-(5-(2-(4-([1,1,′-biphenyl]-4-carbonyl)-2-propylphenoxy)ethoxy)-1H-indazol-1-yl)-2-ethoxyacetate], the “activating PPARγ” value at human PPARγ (NR1C3) is “highly effective”. Also, the “activating PPARα” value on human PPARα (NR1C1) is listed as “not effective”.
